The target of experiment [1] is T1, Geminin-miniCdt1 protein interaction (Homo sapiens, UniProt O75496+Q9H211).
T1 construct: corresponds to the amino acid region 158-396 of the human Cdtl protein; Concentrations series of the full-length Geminin and the synthetic chemical compound were simultaneously injected
T1 sequence (Q9H211 158-396): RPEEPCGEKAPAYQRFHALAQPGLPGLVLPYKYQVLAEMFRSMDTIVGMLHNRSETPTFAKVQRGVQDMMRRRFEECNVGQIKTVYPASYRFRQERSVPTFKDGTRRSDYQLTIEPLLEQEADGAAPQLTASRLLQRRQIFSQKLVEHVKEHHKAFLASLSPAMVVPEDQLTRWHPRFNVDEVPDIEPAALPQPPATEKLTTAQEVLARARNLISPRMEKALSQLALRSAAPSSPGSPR
T1 sequence (O75496 1-209): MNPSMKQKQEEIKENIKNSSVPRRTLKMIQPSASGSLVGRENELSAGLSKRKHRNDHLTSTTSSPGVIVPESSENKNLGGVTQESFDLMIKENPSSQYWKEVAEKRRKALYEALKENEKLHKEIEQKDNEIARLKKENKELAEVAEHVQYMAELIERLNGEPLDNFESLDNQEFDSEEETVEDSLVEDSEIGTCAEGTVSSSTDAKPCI
Nature of the experiment: Surface plasmon resonance (SPR): inhibition of Geminin binding to immobilized miniCdt1. Here is the method: Surface plasmon resonance analysis was performed in order to determine in a quantitative manner the ability of the synthetic compound AF-615/30368009 (compound number 1 in Tables A and B, and Fig. 1) to inhibit the binding of Geminin to the protein miniCdt1 (which corresponds to the amino acid region 158-396 of the human Cdtl protein), by calculating the inhibition constant (KI).
Surface plasmon resonance spectroscopy (SPR) was performed at 25°C, using a Biosensor Biacore instrument (Biacore T100). About 6,000 RU of miniCdt1 protein were immobilized on a CMS Chip (Biacore) at pH 5.5, using amino coupling of Lysine residues. Concentrations series of the full-length Geminin and the synthetic chemical compound were simultaneously injected across the chip in a buffer containing 20 mM Hepes pH 7.5, 200 mM NaCl, 0.01% Tween 20 at a flow rate of 30µl/min. The concentrations used were 12, 36, 107, 322, 966nM for Geminin and 10 µM, 100µM, 1000µM for the compound. The injection of samples was carried out in the presence of 20% DMSO, to ensure high solubility.
In the graphs of Fig. 2, the x axis represents the different concentrations of Geminin (nM), while the y-axis the binding levels in RU (Response Units). […] The results in Fig. 2 indicate the specificity of the in vitro inhibitory effect of the synthetic chemical compound AF-615/30368009 on the Geminin-miniCdt1 protein interaction.
A general note: Surface plasmon resonance follows binding to a sensor surface in real time, without labels.

The target in the next experiment is T2, Geminin (Homo sapiens, UniProt O75496).
T2 construct: the full length human Geminin ortholog was used; expressed in transfected cells; host or cells: MCF7
T2 sequence (O75496 1-209): T1 sequence (O75496 1-209)
Briefly: Intracellular localization of exogenous Geminin-GFP in co-transfected MCF7 cells (fluorescence microscopy). As to conditions: 100µM, 24-hour incubation. The experiment is classed as cell-based. The source says: A cellular assay was developed and applied using epithelial cells of breast adenocarcinoma (MCF7), for the purpose of the ex vivo study of the mechanism by which the inhibitory effect of the synthetic chemical compound affects the functional significance of the Geminin-Cdtl protein interaction.
Therefore, in order to determine the mechanism of action of the synthetic chemical compound AF-615/30368009, its effect on the Geminin nucleo-cytoplasmic translocation was studied ex vivo.
For the purposes of this experiment, the full length human Geminin ortholog was used as well as the protein Cdt1^DEL which corresponds to the human ortholog which lacks the amino acid residues 170-190. […]
For the implementation of the cellular assay, an appropriate number of cells were seeded onto glass coverslips and cells were allowed to culture in order to adhere. […] Then, the coverslips were washed with 1x PBS buffer (2 times), mounted on microscope slides using mounting medium containing the dye DAPI (that stains only nuclei) and were observed under a fluorescence microscope. […]
The experimental design included the transient co-transfection of MCF7 cancer cells with Geminin-GFP & dhcRed and Geminin-GFP & Cdt1^DEL-dhcRed. […] The intracellular localization of Geminin was detected by the autofluorescence of the GFP molecule. […]

As usually defined, the Ki is the equilibrium dissociation constant of an inhibitor or competing ligand from its target.

Structures are written as SMILES.

For `O=C(NNC(=S)N1CCOCC1)c1cnccn1` [AF-615/30368009, N'-(morpholine-4-carbothioyl)pyrazine-2-carbohydrazide], the Ki in experiment [1] (SPR at 25°C, Geminin 12-966nM, compound 10-1000µM, 20% DMSO, estimated value, read-out: inhibition constant (KI)) was 750 ± 190 µM. The “inhibition of Geminin binding to miniCdt1” value in experiment [1] (compound at 1000 µM, SPR binding curves (Fig. 2)) is given as “exhibits inhibition of Geminin binding to miniCdt1”. The “intracellular localization of Geminin” value at Geminin (MCF7, co-transfection with Geminin-GFP & Cdt1^DEL-dhcRed (Fig. 4)) was “no detectable change”. Besides, on Geminin (MCF7, co-transfection with Geminin-GFP & dhcRed (Fig. 4)), the “percentage of cells with nuclear localization of Geminin” value was “statistically significant increase”.

(Values after EP3463364B1, “PYRAZINE DERIVATIVES FOR USE IN THE TREATMENT OF DISEASES ASSOCIATED WITH CELL CYCLE DYSREGULATION” (University of Patras, priority 2016, dated 2017).)
